Assay results published in ChEMBL document CHEMBL5365507, “New Horizons in Cancer Treatment: A Closer Look at Novel PI3Kα Inhibitors” (ACS Med Chem Lett, 2023).

How the values were obtained:
[1] = molecular target: T1, Phosphatidylinositol 4,5-bisphosphate 3-kinase catalytic subunit alpha isoform (Homo sapiens, UniProt P42336); experiment: Inhibition of PIK3CA (unknown origin) using diC8-PIP2 as substrate preincubated for 30 mins followed by substrate addition and measured after 60 mins by ADP-Glo assay
[2] = molecular target: T1, Phosphatidylinositol 4,5-bisphosphate 3-kinase catalytic subunit alpha isoform; experiment: Inhibition of PIK3CA (unknown origin) expressed in MCF-10A cells incubated for 2 hrs by HTRF method; type: cell-based

T1 sequence (P42336 whole entry, canonical isoform): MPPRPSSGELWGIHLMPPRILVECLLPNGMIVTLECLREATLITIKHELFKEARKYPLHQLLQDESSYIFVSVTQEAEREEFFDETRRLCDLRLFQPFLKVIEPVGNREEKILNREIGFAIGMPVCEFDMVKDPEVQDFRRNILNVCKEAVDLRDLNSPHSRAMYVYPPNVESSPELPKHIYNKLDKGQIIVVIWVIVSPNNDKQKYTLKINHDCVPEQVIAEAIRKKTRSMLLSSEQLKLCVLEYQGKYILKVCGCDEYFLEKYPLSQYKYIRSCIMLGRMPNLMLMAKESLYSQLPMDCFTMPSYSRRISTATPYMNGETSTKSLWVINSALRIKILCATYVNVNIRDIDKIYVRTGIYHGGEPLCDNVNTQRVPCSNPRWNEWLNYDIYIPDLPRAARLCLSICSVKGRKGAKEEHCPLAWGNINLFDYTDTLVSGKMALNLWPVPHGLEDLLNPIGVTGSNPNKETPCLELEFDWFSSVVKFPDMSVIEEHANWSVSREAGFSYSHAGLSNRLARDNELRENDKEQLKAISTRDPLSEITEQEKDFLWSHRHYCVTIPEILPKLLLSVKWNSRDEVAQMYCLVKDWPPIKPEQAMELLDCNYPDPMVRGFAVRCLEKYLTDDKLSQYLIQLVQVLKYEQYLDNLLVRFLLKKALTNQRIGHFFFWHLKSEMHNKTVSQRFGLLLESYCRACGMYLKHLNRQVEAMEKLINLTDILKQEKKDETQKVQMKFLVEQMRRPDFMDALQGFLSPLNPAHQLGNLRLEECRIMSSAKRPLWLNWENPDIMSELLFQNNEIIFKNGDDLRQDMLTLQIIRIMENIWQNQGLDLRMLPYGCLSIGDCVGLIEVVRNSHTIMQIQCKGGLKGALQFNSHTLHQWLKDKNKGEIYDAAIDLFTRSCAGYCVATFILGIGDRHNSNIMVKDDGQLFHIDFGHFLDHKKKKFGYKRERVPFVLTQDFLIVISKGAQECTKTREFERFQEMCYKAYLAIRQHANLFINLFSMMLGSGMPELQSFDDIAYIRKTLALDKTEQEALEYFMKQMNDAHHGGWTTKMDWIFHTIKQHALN

| SMILES | IC50 [1] [µM] | IC50 [2] [µM] |
| --- | --- | --- |
| Cc1ccccc1Nc1ncc(C(=O)NC2CC(F)(F)C2)cc1NC(=O)c1cc(F)cc(C(F)(F)F)c1 | 0.1 | 1 |
| Cc1ccccc1Nc1ncc(C(=O)NC2C[S+]([O-])C2)cc1NC(=O)c1csc2ccccc12 (centres undefined) | ≤ 0.1 | 1 |
| Cc1ccccc1Nc1ncc(C(=O)NCc2nccs2)cc1NC(=O)c1csc2ccccc12 | ≤ 0.1 | 5 |
| Cc1ccccc1Nc1ncc(C(=O)Nc2ccncc2)cc1NC(=O)c1cc(F)cc(C(F)(F)F)c1 | 0.1 | ≤ 1 |
| Cc1ccccc1Nc1ncc(C(=O)NCc2ccc(Cl)cc2)cc1NC(=O)c1csc2ccccc12 | 0.1 | 1 |
| Cc1ccccc1Nc1ncc(C(=O)NCC2CC(F)(F)C2)cc1NC(=O)c1cc(F)cc(C(F)(F)F)c1 | 0.1 | 1 |
| Cc1ccccc1Nc1ncc(C(=O)NCc2ccnn2C)cc1NC(=O)c1cc(F)cc(C(F)(F)F)c1 | 0.1 | 1 |
| Cc1ccccc1Nc1ncc(C(=O)NC2CS(=O)(=O)C2)cc1NC(=O)c1csc2ccccc12 | ≤ 0.1 | 1 |
| Cc1ccccc1Nc1ncc(C(=O)NCc2ccn(C)n2)cc1NC(=O)c1cc(F)cc(C(F)(F)F)c1 | 0.1 | 1 |
| Cc1ccccc1Nc1ncc(C(=O)NC2CS(=O)(=O)C2)cc1NC(=O)c1cc(F)cc(C(F)(F)F)c1 | ≤ 0.1 | ≤ 1 |
| Cc1ccccc1Nc1ncc(C(=O)NCc2ccnn2C)cc1NC(=O)c1csc2ccccc12 | 0.1 | 1 |
| Cc1ccccc1Nc1ncc(-c2cncc(C#N)c2)cc1NC(=O)c1cc(F)cc(C(F)(F)F)c1 | 0.1 | 1 |
